Experimental data: patent publication US10471054B2, “CDK1 inhibitors of acetyl chrysin mannich base derivatives, synthesis and use thereof” (priority 2016, dated 2019)
Converted amounts (≈) assume the structure as drawn. Read-outs that look alike come from different tables or passages of the source.

Legend:
log P in Octanol/Water = assay type: physicochemical; settings: octanol/water, Octanol/Water at 37° C.
Procedure: (§1) The solubility and log P of acetyl ChrysinMannich base derivatives see TABLE 1.
(§2) CH-j is pKa 5.3, log P 1.63 in Octanol/Water at 37° C. […] (BA-j 77m/ml). CH-j belongs to BCS II (low solubility, high permeability) and solubility presents the pH dependence. […] CH-j is a pH dependent fast release. […] It is speculated that CH-j has more appropriate log P and solubility with more likely entering tissue cells than others solubility acetyl Chrysin Mannich base derivatives.
(§3) (about 20 times BA-f 277 μg/ml) and 564 μg/ml in water at 37° C. (about 1000 times BA-f 0.53m/ml). CH-f is BCS I (high solubility and permeability) and solubility presents the pH dependence. It is speculated that CH-f has more appropriate log P and solubility with entering systemic (blood system and tissue cells) than others solubility acetyl Chrysin Mannich base derivatives.

pKa = assay type: physicochemical
Procedure: as §2, §3

[1] = Solubility in Octanol, water and pH media; assay type: physicochemical; settings: 37° C.
Procedure: as §1, §2, §3

[2] = tested on: 5 cancers cells (MCF-7, H-460, BGC-823, PC-3, Hep G2); test: Anti-cancer cells proliferation activity, average of 5 cancer cells; assay type: cell-based; settings: average of 5 cancer cells, MTT, 48 h
Source text: Anti-cancer cells proliferationactivity of in vitro CH-j and CH-f were shown in TABLE 2 for the results of the screening of 5 cancers cells.

[3] = oral, liver first pass effect; cited from earlier work
[4] = Chrysin comparison value; cited from earlier work
Hep G2 = test: NaOCl level, BODTPY-OCl fluorescent probe imaging; assay type: cell-based; settings: CH-j 40 μM or HCPT 5 μM for 4 h
Procedure: In vitro cultured Hep G2 was given by BODTPY-OCl selective fluorescent probe 5 μM for 0.5 h, added CH-j 40 μM or HCPT 5 μM for 4 h, and performed fluorescence imaging.

BGC-823 = test: Annexin V-FITC-PI double fluorescence, apoptosis and necrosis; assay type: cell-based; settings: 24 h
Source text: There is a series of morphological characteristic changes in the apoptosis of cells, in which the change of the plasma membrane is one of the characteristics of early apoptosis. The cytoplasm is flipped from the inside of the cytoplasm to the outer surface of the cell when the cell apoptosis, Annexin V is a Ca^++ dependent phospholipid binding protein, which has a high affinity with phospholipid-peptide-serine, which can be combined with the phospholipid peptide specificity that is exposed to the extracellular cells. However, cytoplasm transfer to cell membrane is not unique to apoptosis, but also can occur in cell necrosis. The difference between the two cell death modes is that the cell membrane is intact in the initial stage of apoptosis, and the integrity of the cell membrane in its early stage is destroyed. PI is a nucleic acid dye that cannot pass through the intact cell membrane, but in the cell and necrotic cells in the middle and late stage of apoptosis, the PI can dye the nucleus through the cell membrane. Annexin V-FITC-PI was used to detect apoptosis and necrotic cell ratio on flow cytometry.
A relatively small increase in apoptotic cells is increased.
FIG. 3-3 Annexin V-FITC/PI staining results for BGC-823.

[5] = organic solvent or mixture, Octanol, read-out: Solubility in Octanol
[6] = water, read-out: Solubility in H2O

Row | SMILES | logP (log P in Octanol/Water) | pKa (pKa) | solubility [1, 5] [mg/mL] | solubility ([1]; water, text values of BA-j and BA-f, read-out: Solubility in water) [mg/mL] | solubility [1, 6] [mg/mL] | IC50 [2] [µM] | Glucose aldehyde acid metabolism [3] [%] | Maximum drug concentration [4] [µM] | NaOCl, yellow green fluorescence (Hep G2) | Apoptosis and necrosis by Annexin V-FITC-PI (BGC-823)
1 | CN1CCN(Cc2c(O)c(O)c(O)c3c(=O)cc(-c4ccccc4)oc23)CC1 [BA-f, 5,6,7-trihydroxy-8-(4-methylpiperazin-1-ylmethyl)-2-phenyl-chromen-4-one, reference compound] | 1.7 | 5.6 | 0.277 (≈ 724 µM) | 0.00053 (≈ 1.39 µM) |  |  |  |  |  | 
2 | CC(=O)c1c(O)c(CN2CCOCC2)c2oc(-c3ccccc3)cc(=O)c2c1O [CH-d, 6-Acetyl-5,7-dihydroxy-8-morpholin-4-ylmethyl-2-phenyl-chromen-4-one] | 2.62 | 5.1 | 0.58 (≈ 1470 µM) |  | 0.0014 (≈ 3.54 µM) |  |  |  |  | 
3 | CC(=O)c1c(O)c(CN2CCSCC2)c2oc(-c3ccccc3)cc(=O)c2c1O [CH-e, 6-Acetyl-5,7-dihydroxy-2-phenyl-8-(thiomorpholin-4-ylmethyl)-2-phenyl-chromen-4-one] | 3.08 | 4.8 | 0.12 (≈ 292 µM) |  | 0.0001 (≈ 0.243 µM) |  |  |  |  | 
4 | CC(=O)c1c(O)c(CN2CCCC2CO)c2oc(-c3ccccc3)cc(=O)c2c1O (centres unmarked) [CH-h, 6-Acetyl-5,7-dihydroxy-8-(2-hydroxymethyl-pyrrolidin-1-ylmethyl)-2-phenyl-chromen-4-one] | 1.77 | 5.4 | 2.55 (≈ 6230 µM) |  | 0.0434 (≈ 106 µM) |  |  |  |  | 
5 | CC(=O)c1c(O)c(CN2CCN(CCO)CC2)c2oc(-c3ccccc3)cc(=O)c2c1O [CH-i, 6-Acetyl-5,7-dihydroxy-8-[4-(2-hydroxy-ethyl)-piperazin-1-ylmethyl]-2-phenyl-chromen-4-one] | 2.07 | 4.8 | 0.733 (≈ 1670 µM) |  | 0.0062 (≈ 14.1 µM) |  |  |  |  | 
6 | O=c1cc(-c2ccccc2)oc2cc(O)cc(O)c12 [Chrysin] |  |  |  |  |  | 30 | > 95 | 0.64 |  | 
7 | CC[C@@]1(O)C(=O)OCc2c1cc1n(c2=O)Cc2cc3cc(O)ccc3nc2-1 [HCPT, reference compound] |  |  |  |  |  |  |  |  | present fluorescence | induce apoptosis at low doses, and high dose can cause the inflammatory necrosis of early cells
8 | CC(=O)c1c(O)c(CN2CCC(O)CC2)c(O)c2c(=O)cc(-c3ccccc3)oc12 [is-CH-j, 8-Acetyl-5,7-dihydroxy-6-(4-hydroxy-piperidin-1-ylmethyl)-2-phenyl-chromen-4-one] | 1.82 | 4.5 | 3.41 (≈ 8330 µM) |  | 0.052 (≈ 127 µM) |  |  |  |  | 
